Experimental findings from article PMC6748986, “Potent modulation of the CepR quorum sensing receptor and virulence in a Burkholderia cepacia complex member using non-native lactone ligands” (Scientific Reports, 2019) are described below.

Where two headings read alike, the source gives them in different places.

In one experiment the test system is LasR, RhlR, and QscR. The experiment can be described thus: Comparison of activities in CepR vs. the three LuxR-type receptors in P. aeruginosa. As to conditions: preliminary analyses; comparison with earlier data ref 22, 24, 59. The text has this: To close, the compounds identified herein constitute new chemical tools to study QS in Bcc species in a variety of contexts. Given the strong conservation of CepR between Bcc members, we hypothesize our compounds will maintain their activity profiles across Bcc member species and we can begin to use them to assess the role of CepI/CepR QS on a broader scale. […] A next step moving forward will be to gauge the selectivity of the ligands identified herein for CepR over other LuxR-type receptors. […] Such compounds could allow for the selective targeting of QS in one organism in a mixed culture over time and allow for insights into the potential for interspecies interactions via QS and their effects on host health outcomes. Ongoing studies are focused in this arena, along with further delineating the mechanisms by which our CepR ligands agonize and antagonize CepR, and will be reported in due course.

The target of another experiment is T1, CepR (Burkholderia multivorans, UniProt Q93PF7).
T1 sequence (Q93PF7 1-239): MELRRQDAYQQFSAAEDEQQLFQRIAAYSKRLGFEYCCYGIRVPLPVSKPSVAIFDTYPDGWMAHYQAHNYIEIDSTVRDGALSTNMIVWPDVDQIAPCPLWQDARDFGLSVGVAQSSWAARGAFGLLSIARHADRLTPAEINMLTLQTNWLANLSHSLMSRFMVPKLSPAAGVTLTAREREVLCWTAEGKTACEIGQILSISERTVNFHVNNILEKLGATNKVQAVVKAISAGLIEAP
The experiment can be described thus: CepR antagonism in B. multivorans cepI::lacZ reporter (Bm-reporter), competition against C8-AHL. The format is cell-based. The source says: We next sought to assess if the CepR modulators identified in the Ec-reporter maintained their activities in a member of the Bcc. For these studies, we generated a B. multivorans cepI::lacZ reporter organism (Bm-reporter) using standard allelic exchange methods (see Methods). Along with B. cenocepacia, B. multivorans is one of the most commonly isolated Bcc members[6],[44]. We note that small molecules must contend with a different cellular environment in the native organism relative to E. coli[48]; however, as both CepR and the cepI promoter are highly conserved among Bcc species (Fig. S3), we reasoned that the majority of compounds identified in the Ec-reporter (containing B. cenocepacia versions of the cepI promoter and the cepR gene) would maintain their relative activity profiles in CepR in B. multivorans. […] Similar to the Ec-reporter, CepR binding to the cepI promoter then induces β-galactosidase production, allowing for the quantitation of CepR activity. Using the Bm-reporter organism, we observed robust activity for CepR in response to C8-AHL (EC50 = 0.7 nM, Table 3).
The B. multivorans cepI::lacZ strain was used to obtain dose-response data for CepR in response to synthetic AHLs. Overnight cultures of B. multivorans cepI::lacZ were grown in LB medium at 37 °C with shaking (225 rpm). Aliquots (200 μL) of a 1:10 dilution of this overnight culture were plated into 96-well plates containing varying concentrations of compound, and then grown for 4 h at 37 °C with shaking (225 rpm). β-galactosidase production was measured as described above for E. coli, with the following changes: permeabilized cells were incubated at 25 °C with substrate CPRG for ~10 min until positive control wells developed a deep red color. For agonism assays, synthetic compound was screened alongside and compared to the native ligand, C8-AHL (100 μM). For antagonism assays, the concentration of native ligand utilized was 5 nM (approximately equal to twice its EC50 value).

The subject of another experiment is B. multivorans ATCC17616. Nature of the experiment: Swarming motility assay (0.5% agar). The format is cell-based. As to conditions: 50 μM C8-AHL. The text has this: We were interested to assess the effects of our lead CepR modulators on a phenotype under the control of QS in B. multivorans. However, very little work has been reported to directly link CepR activity in B. multivorans to any QS-controlled phenotype. […] Therefore, we chose to study the effects of compound treatment on both the swarming and swimming motility of B. multivorans (B. multivorans ATCC17616; see Methods).
We then tested the ability of our non-native compounds to modulate swimming motility in B. multivorans.
Figure S4. Motility assays (A ) on 0.3% agar (i.e., to measure swimming) with th e B. multivorans parental and cepI::lacZ organisms, using +/- 50 μM C8-AHL and (B) on 0. 5 % ag a r (i.e . , t o measure swarming ) with the B. multivorans parental organism, using +/- 50 μ M C8-AHL. Se e main text for assay methods.
(1 picture or pasted object on this page, not shown here)

The mark [1] stands for this setting: Bm-reporter, against 5 nM C8-AHL.

As to `O=C(CCc1ccc([N+](=O)[O-])cc1)N[C@H]1CCOC1=O` [Compound E37], the “Selectivity for CepR over LasR, RhlR, QscR” value (“Selectivity for CepR” for short) in the experiment on LasR, RhlR, and QscR was “selective for CepR”.

With `O=C(Cc1cccc(Br)c1)N[C@H]1CCOC1=O` [Compound C8], the “CepR antagonism in words” value at CepR (Bm-reporter) is listed as “bring reporter activity down to nearly zero”. For the same compound, the “Maximal Inhibition (%)” value on CepR (setting [1]) was 94%. The IC50 on CepR (Bm-reporter, against 5 nM C8-AHL, read-out: IC50) turned out to be 2600 nM.

For `CCCCCCCC(=O)N[C@H]1CCOC1=O` [Compound C8-AHL, N-octanoyl L-homoserine lactone, reference compound], the “Swarming motility upon addition of compound” value in the experiment with B. multivorans ATCC17616 is recorded as “not increased”.

At CepR, `O=C(CC1CCCC1)N[C@H]1CCOC1=O` [Compound B12] showed a half-inhibitory concentration (IC50) of 2100 nM. Besides, the “Maximal Inhibition (%)” value on CepR (setting [1]) was determined as 83%.

For the compound `CCCCCCCS(=O)(=O)N[C@H]1CCOC1=O` [Compound A12], on CepR, the IC50 was found to be 1700 nM. Also, on CepR (setting [1]), the “Maximal Inhibition (%)” value turned out to be 82%. The “Selectivity for CepR” value with LasR, RhlR, and QscR is recorded as “selective for CepR”.

In turn, `O=C(Cc1cccc(C(F)(F)F)c1)N[C@H]1CCOC1=O` [Compound E3] came in with an IC50 at CepR of 1900 nM. For the same compound, on CepR (Bm-reporter), the “CepR antagonism in words” value is “bring reporter activity down to nearly zero”. In addition, the “Maximal Inhibition (%)” value on CepR (setting [1]) is reported as 100%. Moreover, the “Selectivity for CepR” value with LasR, RhlR, and QscR is “selective for CepR”.

The IC50 is the concentration at which inhibition is half-maximal.
